The target of test [1] is T1, Kir3.1/4 channel (Homo sapiens, UniProt P48544+P48549).
T1 sequence (P48549 1-501): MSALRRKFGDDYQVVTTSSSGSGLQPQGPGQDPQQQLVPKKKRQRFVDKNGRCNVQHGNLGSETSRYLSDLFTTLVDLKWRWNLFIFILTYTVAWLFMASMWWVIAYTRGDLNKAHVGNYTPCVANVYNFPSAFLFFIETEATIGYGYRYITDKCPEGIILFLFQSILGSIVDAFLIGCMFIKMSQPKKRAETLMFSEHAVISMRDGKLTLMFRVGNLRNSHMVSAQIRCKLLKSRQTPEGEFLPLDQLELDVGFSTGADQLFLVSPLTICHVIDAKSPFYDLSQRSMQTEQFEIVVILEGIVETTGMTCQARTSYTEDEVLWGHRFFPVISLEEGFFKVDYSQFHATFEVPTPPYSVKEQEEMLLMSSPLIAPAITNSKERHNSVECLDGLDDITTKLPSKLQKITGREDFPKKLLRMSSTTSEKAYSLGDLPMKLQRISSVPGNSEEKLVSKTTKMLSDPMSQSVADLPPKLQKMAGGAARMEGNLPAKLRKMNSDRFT
T1 sequence (P48544 1-419): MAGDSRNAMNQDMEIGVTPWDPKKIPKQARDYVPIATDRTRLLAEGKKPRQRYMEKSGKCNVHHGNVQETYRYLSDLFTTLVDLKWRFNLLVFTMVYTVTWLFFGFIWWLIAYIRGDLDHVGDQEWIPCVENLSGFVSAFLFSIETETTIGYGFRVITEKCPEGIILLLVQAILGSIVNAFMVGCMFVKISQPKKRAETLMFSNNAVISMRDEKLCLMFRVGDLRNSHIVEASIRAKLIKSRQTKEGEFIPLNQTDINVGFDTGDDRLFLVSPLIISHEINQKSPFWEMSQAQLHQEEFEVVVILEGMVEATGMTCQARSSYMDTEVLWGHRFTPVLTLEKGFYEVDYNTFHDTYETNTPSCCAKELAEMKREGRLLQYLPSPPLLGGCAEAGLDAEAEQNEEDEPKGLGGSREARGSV
In words: TEVC in Xenopus oocytes, Kir3.1/4. The format is cell-based. More on the design: expressed in transfected cells; host or cells: Xenopus laevis oocytes (cRNA injection). The procedure:
(§1) X. laevis oocytes were isolated and microinjected as previously described ([6]). Human Kir3.1, mouse Kir3.2, and human Kir3.4 DNA constructs were used for electrophysiology experiments. All cRNA constructs were injected in the amount of 2 ng per oocyte. Injected oocytes were incubated for 2 to 3 days at 18 °C to allow for expression. Whole-cell oocyte currents were then measured using a GeneClamp 500 amplifier (Axon Instruments). Microelectrodes had resistances of 0.5 to 1 megohm using a 3M KCl solution in 1.4% agarose. Oocytes were perfused with a low K^+ (LK) solution ND96 (2 mM KCl, 96 mM NaCl, 1 mM MgCl2, 1.8 mM CaCl2, 5 mM HEPES-Na) to establish a baseline for the recordings. Basal current was measured in a high potassium (HK) solution ND96K (96 mM KCl, 10 mM HEPES-K, 1 mM MgCl2, 1.8 mM CaCl2). To block the current, the oocyte chamber was perfused with 4 mM BaCl2 in ND96K. Only the Barium-sensitive current was used for statistical analysis. To measure the inhibitory activity of the channels, 1 μM BP-G1 in ND96K (HK) was used. Typically, oocytes were held at 0 mV (EK) and the current was monitored constantly using a ramp protocol with a command potential from −80 to +80 mV. Current amplitude was measured at the end of a 1 s sweep. All currents were analyzed when they reached steady state. Error bars in the figures represent SD (N > 4).

The target of test [2] is T2, Kir3.1/2 channel (UniProt P48542+P48549).
T2 sequence (P48549 1-501): T1 sequence (P48549 1-501)
T2 sequence (P48542 1-425): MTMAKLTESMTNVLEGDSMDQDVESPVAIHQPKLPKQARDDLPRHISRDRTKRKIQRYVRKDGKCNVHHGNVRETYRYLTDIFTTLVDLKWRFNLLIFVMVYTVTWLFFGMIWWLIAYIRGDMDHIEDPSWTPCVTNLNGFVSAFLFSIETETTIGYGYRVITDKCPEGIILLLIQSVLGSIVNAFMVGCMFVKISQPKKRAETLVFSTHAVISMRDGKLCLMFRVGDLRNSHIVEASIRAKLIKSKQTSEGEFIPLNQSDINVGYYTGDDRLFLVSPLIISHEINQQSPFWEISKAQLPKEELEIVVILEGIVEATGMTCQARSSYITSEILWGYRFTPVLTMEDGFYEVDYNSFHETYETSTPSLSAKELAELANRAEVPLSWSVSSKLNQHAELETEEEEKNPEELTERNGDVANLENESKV
In words: TEVC in Xenopus oocytes, Kir3.1/2. Further details: expressed in transfected cells. The test is classed as cell-based, human Kir3.1, mouse Kir3.2. Conditions: TEVC oocyte experiments; read-out: IC50, inhibition of Kir3.1/2. The procedure: as §1

Test [3] deals with T3, Kir3.1(E141A)/4 (Homo sapiens, UniProt P48544+P48549, E141A).
T3 construct: expressed in transfected cells; host or cells: Xenopus laevis oocytes (cRNA injection)
In words: TEVC in Xenopus oocytes, Kir3.1(E141A)/4. The format is cell-based. The settings on record: 1 μM.

Test [4] relates to Kir2.1, Kir2.3, Kir3.1∗, Kir3.2∗, Kir3.4∗, Kir3.1∗/Kir3.2 and Kir3.1∗/Kir3.4. Nature of the test: TEVC in Xenopus oocytes, selectivity over other Kir channels. The test is classed as cell-based. The settings on record: 1 μM.
Test [5] has as its target T4, Kir6.2/SUR2A (Homo sapiens, UniProt O60706+Q14654).
T4 construct: Andrew Tinker, UCL; host or cells: HEK293
Nature of the test: Cloned cardiac ion channel patch clamp, Kir6.2/SUR2A. The test is classed as cell-based. (In patch-clamp work, channel activity is measured electrically.)

Test [6] has as its target Kir6.1/SUR2B (Homo sapiens, UniProt O60706+Q15842). Nature of the test: Cloned cardiac ion channel electrophysiology, Kir6.1/SUR2B. The format is cell-based. The procedure:
page 24: APPENDIX 4- EQUATIONS %Inhibition = (1 - IIntervention/IControl) × 100 Equation 1 - Percentage Inhibition Inhibition of current (or leak-subtracted current) was calculated from steady-state current recorded in the absence (IControl) and presence of test-article (IIntervention). […]

“And” between values parts separate entries of the source, which are not always exact repeats. Identical values can stand only once.

T3 sequence (P48549 whole entry E141A, one chain of several): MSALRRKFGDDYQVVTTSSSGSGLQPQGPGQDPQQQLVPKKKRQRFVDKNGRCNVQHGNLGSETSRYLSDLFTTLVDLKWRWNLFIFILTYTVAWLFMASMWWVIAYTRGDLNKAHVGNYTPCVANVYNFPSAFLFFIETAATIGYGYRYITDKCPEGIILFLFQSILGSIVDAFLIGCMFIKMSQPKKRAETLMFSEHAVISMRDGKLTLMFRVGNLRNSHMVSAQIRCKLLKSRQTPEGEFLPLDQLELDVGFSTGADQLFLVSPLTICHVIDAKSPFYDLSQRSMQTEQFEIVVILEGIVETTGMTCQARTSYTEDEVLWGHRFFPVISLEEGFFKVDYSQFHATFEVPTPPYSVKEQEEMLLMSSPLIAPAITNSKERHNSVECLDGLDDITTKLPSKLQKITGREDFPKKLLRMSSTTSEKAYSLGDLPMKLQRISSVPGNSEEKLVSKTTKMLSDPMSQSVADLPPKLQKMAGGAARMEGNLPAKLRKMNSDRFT
Sequence of Kir6.1/SUR2B (Q15842 whole entry): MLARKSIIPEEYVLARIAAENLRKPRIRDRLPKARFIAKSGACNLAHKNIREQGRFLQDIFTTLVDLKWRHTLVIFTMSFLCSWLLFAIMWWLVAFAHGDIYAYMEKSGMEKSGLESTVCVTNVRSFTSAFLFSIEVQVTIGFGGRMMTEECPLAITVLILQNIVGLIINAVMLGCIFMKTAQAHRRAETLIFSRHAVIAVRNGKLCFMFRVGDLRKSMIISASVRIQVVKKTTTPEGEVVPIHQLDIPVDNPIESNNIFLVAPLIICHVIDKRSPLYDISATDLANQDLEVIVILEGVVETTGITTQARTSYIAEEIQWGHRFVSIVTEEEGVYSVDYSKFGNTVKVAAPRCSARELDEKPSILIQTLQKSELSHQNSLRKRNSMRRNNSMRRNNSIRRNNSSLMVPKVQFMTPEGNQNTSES
Sequence of Kir6.1/SUR2B (O60706 1-1549 isoform O60706-2): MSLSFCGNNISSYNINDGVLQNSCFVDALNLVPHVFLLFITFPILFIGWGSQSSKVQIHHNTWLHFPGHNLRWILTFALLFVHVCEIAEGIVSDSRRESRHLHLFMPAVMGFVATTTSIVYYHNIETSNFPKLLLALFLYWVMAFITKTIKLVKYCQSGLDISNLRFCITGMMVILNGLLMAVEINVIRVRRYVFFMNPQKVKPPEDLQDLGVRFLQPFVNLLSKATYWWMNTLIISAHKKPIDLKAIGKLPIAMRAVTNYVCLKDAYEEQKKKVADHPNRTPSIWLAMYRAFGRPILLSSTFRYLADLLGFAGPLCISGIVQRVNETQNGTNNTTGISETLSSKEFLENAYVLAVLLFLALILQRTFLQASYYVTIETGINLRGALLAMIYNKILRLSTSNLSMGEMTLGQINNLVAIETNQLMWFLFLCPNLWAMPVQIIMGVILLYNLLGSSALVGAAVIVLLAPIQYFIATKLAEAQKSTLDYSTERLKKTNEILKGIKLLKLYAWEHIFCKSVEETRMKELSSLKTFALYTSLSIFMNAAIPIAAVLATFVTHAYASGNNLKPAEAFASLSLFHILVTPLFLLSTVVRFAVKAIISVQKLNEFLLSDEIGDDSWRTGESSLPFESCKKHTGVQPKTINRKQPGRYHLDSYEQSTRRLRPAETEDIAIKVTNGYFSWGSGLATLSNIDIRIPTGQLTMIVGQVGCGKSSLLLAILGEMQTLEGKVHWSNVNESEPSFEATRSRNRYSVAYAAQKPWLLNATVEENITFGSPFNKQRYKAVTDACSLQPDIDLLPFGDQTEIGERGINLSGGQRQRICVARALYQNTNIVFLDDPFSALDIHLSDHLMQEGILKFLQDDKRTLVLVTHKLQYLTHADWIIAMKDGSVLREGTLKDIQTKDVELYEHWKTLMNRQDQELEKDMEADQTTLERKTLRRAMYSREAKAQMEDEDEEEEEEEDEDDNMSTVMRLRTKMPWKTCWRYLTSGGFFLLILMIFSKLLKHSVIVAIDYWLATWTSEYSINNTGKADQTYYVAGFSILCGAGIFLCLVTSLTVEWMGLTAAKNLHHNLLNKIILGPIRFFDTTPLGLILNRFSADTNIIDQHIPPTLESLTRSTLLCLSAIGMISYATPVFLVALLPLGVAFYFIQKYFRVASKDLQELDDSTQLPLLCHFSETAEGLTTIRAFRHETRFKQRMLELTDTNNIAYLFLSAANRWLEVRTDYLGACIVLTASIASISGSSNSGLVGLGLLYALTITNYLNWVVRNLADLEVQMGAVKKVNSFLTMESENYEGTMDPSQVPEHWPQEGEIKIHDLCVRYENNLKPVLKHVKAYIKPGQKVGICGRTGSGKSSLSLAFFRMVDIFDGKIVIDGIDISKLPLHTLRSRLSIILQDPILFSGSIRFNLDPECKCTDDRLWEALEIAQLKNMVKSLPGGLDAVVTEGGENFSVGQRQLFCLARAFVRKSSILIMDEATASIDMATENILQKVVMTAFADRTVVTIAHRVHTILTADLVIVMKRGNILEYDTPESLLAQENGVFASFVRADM
T4 sequence (Q14654 whole entry): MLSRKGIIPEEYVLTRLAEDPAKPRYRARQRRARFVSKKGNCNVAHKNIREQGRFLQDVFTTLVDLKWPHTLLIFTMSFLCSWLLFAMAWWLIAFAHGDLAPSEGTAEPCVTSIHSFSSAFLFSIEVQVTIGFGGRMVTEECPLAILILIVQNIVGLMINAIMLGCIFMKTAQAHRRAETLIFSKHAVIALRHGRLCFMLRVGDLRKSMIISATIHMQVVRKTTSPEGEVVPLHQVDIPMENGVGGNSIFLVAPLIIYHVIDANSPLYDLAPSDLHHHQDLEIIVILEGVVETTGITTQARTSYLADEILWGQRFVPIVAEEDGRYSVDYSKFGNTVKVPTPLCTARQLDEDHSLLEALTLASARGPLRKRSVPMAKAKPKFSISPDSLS
T4 sequence (O60706 whole entry): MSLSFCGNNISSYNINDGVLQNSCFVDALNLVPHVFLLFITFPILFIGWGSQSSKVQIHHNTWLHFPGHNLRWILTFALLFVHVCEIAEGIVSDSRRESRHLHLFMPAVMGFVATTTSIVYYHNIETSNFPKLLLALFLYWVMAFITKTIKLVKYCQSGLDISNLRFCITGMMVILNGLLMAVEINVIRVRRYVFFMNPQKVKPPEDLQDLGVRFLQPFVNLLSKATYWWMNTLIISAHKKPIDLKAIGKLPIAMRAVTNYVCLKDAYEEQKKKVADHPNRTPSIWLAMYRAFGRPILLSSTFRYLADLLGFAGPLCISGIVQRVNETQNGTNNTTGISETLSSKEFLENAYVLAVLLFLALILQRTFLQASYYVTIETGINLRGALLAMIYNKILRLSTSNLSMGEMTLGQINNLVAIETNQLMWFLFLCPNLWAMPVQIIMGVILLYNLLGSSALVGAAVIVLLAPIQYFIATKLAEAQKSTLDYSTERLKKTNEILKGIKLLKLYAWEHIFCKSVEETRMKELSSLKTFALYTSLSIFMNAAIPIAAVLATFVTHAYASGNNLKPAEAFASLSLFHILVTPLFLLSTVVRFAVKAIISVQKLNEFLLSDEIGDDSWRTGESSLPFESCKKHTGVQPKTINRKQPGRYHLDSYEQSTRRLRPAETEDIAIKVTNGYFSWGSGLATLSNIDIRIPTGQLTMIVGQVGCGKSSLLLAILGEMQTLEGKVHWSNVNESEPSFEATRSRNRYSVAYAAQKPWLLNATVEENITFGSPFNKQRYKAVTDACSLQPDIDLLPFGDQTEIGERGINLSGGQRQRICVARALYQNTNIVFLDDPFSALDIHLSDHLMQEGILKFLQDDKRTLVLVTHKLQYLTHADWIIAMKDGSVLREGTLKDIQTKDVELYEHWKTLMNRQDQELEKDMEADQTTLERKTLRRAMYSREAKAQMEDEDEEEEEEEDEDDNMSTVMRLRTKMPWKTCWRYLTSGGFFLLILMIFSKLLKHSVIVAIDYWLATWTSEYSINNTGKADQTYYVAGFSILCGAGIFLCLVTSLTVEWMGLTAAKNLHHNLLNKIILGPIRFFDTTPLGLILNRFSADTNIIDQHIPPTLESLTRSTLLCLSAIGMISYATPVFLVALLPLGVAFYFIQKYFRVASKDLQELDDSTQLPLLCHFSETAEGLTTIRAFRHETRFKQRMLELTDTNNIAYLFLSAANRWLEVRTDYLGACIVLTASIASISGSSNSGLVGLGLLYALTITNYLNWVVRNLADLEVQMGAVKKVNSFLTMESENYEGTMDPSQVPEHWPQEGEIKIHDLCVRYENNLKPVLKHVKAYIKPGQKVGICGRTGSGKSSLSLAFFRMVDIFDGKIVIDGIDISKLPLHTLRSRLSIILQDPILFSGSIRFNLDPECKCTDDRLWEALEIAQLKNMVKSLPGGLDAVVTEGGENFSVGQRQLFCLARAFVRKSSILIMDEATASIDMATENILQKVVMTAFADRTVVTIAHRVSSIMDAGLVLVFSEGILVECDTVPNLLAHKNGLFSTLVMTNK

For `Cc1cc(CO)nc2cc3c(cc12)OC(C)(C)[C@H](O)[C@H]3NCCc1ccccc1` [BP-G1, (3R,4S)-7-(hydroxymethyl)-2,2,9-trimethyl-4-(2-phenylethylamino)-3,4-dihydropyrano[2,3-g]quinolin-3-ol], in test [1] (1 μM, TEVC), the “current block, wild-type Kir3.1/4” value is on record as 75 to 80%. Moreover, the IC50 in test [1] (TEVC oocyte experiments, read-out: IC50, inhibition of Kir3.1/4) was 55 nM and 55.9 nM; in test [2] it was 55.9 nM and 55 nM; in test [5], above 10000 nM; in test [6], 9900 nM. Further, the “current block, Kir3.1(E141A)/4” value in test [3] was 25%. The “selectivity for Kir3.1-containing heteromers over other Kir channels” value in test [4] is recorded as “strong inhibitory selectivity”.

For the origin of these results see PMC8086025, “A benzopyran with antiarrhythmic activity is an inhibitor of Kir3.1-containing potassium channels” (The Journal of Biological Chemistry, 2021).
